Counter-ions that a name gives are not always drawn. Like-named read-outs stand apart in the source and are kept apart here.
Assays:
[1] = biological target: Photinus pyralis (firefly) luciferase (Photinus pyralis, UniProt P08659); assay: biochemical; format: biochemical
[2] = biological target: T1, human CYP2C19 (Homo sapiens, UniProt P33261); conditions: for CYP2C19 Efficacy (in parenthesis): human
[3] = biological target: T2, human CYP2D6 (Homo sapiens, UniProt P10635)
[4] = biological target: T3, human CYP1A2 (Homo sapiens, UniProt P05177); assay: biochemical
T3 sequence (P05177 1-516): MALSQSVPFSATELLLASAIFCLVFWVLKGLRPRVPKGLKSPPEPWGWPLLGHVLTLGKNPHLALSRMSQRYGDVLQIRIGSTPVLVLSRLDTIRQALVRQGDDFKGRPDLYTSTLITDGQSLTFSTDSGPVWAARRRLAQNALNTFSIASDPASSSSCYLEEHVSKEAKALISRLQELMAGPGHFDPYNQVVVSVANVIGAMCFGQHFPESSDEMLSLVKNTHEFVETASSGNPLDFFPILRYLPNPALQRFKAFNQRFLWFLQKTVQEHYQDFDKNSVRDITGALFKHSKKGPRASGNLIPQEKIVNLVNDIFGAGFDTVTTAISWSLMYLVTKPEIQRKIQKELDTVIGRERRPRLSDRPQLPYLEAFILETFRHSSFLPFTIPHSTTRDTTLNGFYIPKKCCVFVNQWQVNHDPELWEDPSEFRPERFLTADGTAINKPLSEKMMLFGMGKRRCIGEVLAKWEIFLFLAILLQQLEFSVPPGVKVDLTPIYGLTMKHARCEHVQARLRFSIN

[5] = biological target: T3, human CYP1A2; conditions: for CYP1A2 Efficacy (in parenthesis): human
[6] = biological target: T4, human CYP2C9 (Homo sapiens, UniProt P11712); assay: biochemical; conditions: for AC50: CYP2C9 AC50 (half-maximal activity concentration)
[7] = biological target: T4, human CYP2C9; conditions: for CYP2C9 Efficacy (in parenthesis): human
[8] = biological target: T1, human CYP2C19; assay: biochemical; conditions: for AC50: CYP2C19 AC50 (half-maximal activity concentration)
[9] = biological target: CYP3A4 (Homo sapiens, UniProt P08684)
[10] = biological target: T2, human CYP2D6; assay: biochemical
[11] = CYP1A2 IC50 (half-maximal inhibitory concentration)
[12] = CYP2C9 IC50 (half-maximal inhibitory concentration)
[13] = CYP2C19 IC50 (half-maximal inhibitory concentration)
[14] = CYP2D6 IC50 (half-maximal inhibitory concentration)
[15] = CYP2D6 AC50 (half-maximal activity concentration)

T2 sequence (P10635 whole entry): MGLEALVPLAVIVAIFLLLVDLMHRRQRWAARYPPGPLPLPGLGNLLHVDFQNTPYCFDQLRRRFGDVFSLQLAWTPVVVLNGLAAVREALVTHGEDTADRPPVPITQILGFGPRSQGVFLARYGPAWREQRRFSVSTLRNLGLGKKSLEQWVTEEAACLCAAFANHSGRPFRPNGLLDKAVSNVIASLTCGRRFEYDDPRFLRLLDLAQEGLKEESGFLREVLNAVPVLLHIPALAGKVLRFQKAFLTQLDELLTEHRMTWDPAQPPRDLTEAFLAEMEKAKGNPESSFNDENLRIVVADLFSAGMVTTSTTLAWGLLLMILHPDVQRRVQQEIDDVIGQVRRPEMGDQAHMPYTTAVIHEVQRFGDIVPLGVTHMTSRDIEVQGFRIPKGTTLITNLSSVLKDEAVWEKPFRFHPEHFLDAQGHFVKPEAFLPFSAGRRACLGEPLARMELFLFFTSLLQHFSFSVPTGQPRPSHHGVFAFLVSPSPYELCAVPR
T4 sequence (P11712 whole entry): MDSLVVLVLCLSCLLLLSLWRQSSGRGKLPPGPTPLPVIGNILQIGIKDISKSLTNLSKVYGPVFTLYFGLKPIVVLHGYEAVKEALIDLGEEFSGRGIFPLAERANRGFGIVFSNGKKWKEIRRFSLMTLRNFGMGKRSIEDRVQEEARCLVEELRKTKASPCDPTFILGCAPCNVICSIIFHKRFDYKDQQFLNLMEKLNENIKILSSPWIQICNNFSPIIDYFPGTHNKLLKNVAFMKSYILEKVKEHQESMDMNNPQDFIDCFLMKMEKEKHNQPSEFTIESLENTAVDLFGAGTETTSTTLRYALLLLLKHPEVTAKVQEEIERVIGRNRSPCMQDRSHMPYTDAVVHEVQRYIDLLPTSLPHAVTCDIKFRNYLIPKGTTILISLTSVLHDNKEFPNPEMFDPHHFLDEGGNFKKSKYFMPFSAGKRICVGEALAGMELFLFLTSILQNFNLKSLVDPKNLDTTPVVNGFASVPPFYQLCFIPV
CYP3A4, sequence (P08684 whole entry): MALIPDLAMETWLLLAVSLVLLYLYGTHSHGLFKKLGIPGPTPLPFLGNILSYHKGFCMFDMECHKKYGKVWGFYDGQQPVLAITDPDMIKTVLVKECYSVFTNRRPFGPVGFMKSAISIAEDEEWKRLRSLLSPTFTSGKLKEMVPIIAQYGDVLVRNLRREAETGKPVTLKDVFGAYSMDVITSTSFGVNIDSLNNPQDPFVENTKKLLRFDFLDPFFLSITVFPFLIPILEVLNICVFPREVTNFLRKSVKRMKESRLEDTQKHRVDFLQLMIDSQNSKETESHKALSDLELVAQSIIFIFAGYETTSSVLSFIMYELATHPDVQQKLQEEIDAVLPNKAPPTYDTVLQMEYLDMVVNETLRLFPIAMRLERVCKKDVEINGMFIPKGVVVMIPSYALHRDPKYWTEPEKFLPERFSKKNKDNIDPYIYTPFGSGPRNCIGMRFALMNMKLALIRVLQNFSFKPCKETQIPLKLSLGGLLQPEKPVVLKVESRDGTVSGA
Photinus pyralis (firefly) luciferase, sequence (P08659 whole entry): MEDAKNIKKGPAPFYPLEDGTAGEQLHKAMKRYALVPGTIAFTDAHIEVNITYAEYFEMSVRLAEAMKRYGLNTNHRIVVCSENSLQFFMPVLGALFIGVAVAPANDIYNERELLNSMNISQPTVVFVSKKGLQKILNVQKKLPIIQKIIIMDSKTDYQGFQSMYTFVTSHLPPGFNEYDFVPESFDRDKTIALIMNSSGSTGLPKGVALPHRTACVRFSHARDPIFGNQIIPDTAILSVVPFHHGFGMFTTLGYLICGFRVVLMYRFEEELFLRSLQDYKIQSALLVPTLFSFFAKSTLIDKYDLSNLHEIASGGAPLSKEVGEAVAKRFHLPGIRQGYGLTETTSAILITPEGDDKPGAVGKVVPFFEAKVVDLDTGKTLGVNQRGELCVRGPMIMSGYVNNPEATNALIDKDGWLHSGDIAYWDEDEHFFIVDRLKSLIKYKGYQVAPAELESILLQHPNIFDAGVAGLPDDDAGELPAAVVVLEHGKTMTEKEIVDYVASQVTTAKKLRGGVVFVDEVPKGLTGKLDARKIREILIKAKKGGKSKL
T1 sequence (P33261 whole entry): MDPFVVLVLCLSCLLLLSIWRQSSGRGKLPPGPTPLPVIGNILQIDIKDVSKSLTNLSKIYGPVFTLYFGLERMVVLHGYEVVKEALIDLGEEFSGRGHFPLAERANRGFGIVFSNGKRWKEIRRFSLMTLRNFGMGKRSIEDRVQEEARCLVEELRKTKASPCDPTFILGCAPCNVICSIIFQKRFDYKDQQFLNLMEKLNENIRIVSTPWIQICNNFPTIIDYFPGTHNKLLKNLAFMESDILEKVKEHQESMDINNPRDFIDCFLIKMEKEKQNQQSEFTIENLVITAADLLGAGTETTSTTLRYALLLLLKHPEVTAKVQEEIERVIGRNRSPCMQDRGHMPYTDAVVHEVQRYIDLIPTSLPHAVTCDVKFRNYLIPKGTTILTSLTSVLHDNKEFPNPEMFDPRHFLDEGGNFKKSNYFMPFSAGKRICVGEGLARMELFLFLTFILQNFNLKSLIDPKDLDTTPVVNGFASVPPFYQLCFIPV

Compound: Brc1cc2ccccc2c2ccccc12 [9-Bromophenanthrene]
- Luciferase IC50 (half-maximal inhibitory concentration) [1]: Inactive
- CYP2C19 Efficacy (in parenthesis) [2]: 29.42 ± 9.47 (-107 ± 13) %
- CYP2D6 IC50 (half-maximal inhibitory concentration) [3]: Inactive
- IC50 [4, 11]: 0.32 µM
- CYP1A2 Efficacy (in parenthesis) [5]: 0.32 ± 0.09 (-101 ± 1) %
- IC50 [6, 12]: 56.8 µM
- CYP2C9 Efficacy (in parenthesis) [7]: 56.84 ± 0 (-53 ± 6) %
- IC50 [8, 13]: 29.4 µM
- CYP3A4 IC50 (half-maximal inhibitory concentration) [9]: Inactive

Compound: c1ccc2cc3ccccc3cc2c1 [Anthracene]
- Luciferase IC50 [1]: Inactive
- CYP2D6 IC50 [3]: Inactive
- IC50 ([4]; CYP1A2 IC50): 0.5 µM
- CYP2C9 IC50 [7]: Inactive
- IC50 ([8]; CYP2C19 IC50): 67 µM
- CYP3A4 IC50 [9]: Inactive

Compound: CC1=C(C(=O)OC(C)C)C(c2cccc([N+](=O)[O-])c2)C(C(=O)OC2CN(C(c3ccccc3)c3ccccc3)C2)=C(N)N1 (centres unmarked) [Azelnidipine]
- IC50 [6]: 1.56 ± 0.18 µM
- IC50 [8]: 2.43 ± 0.68 µM
- IC50 [10]: 13.2 ± 3.2 µM

Compound: CCCCC(=O)O[C@]1(C(=O)CO)[C@@H](C)C[C@H]2[C@@H]3CCC4=CC(=O)C=C[C@]4(C)[C@@]3(F)[C@@H](O)C[C@@]21C [Betamethasone valerate]
- IC50 [6, 12]: 17.4 µM
- IC50 [8, 13]: 31.1 µM
- IC50 [10, 14]: 39.1 µM

Compound: O=C1CC2(CCCC2)CC(=O)N1CCNCC1COc2ccccc2O1 (centres unmarked) [Binospirone mesylate]
- IC50 [6]: 23.5 ± 5.69 µM
- IC50 [8]: 8.77 ± 1.42 µM
- IC50 [10]: 0.29 ± 0.02 µM

Compound: Cc1cc2c(OCC(CNC(C)(C)C)OC(=O)c3ccccc3)cccc2[nH]1 (centres unmarked) [Bopindolol]
- IC50 [6]: 6.95 ± 0.8 µM
- IC50 [8]: 23.9 ± 13 µM
- IC50 [10]: 0.64 ± 0.04 µM

Compound: CCCC(=O)O[C@]1(C(=O)CCl)[C@@H](C)C[C@H]2[C@@H]3CCC4=CC(=O)C=C[C@]4(C)[C@@]3(F)C(=O)C[C@@]21C [Clobetasone butyrate]
- IC50 [6, 12]: 17.6 µM
- IC50 [8, 13]: 8.43 µM
- IC50 [10, 14]: 7.77 µM

Compound: CN1CCC(=C2c3ccccc3C=Cc3ccccc32)CC1 [Cyproheptadine hydrochloride]
- AC50 [8]: 21.5 µM
- AC50 [10, 15]: 2.67 µM

Compound: O=C(Nc1ccccc1)OCC(CN1CCCCC1)OC(=O)Nc1ccccc1 (centres unmarked) [Diperodon hydrochloride]
- IC50 [6, 12]: 20.8 µM
- IC50 [8, 13]: 7.12 µM
- IC50 [10, 14]: 0.36 µM

Compound: CCCCOc1ccc(C(=O)CCN2CCCCC2)cc1 [Dyclonine hydrochloride]
- AC50 [6]: 14.5 µM
- AC50 [10, 15]: 6.92 µM

Compound: OC(CN1CCC(Cc2ccc(F)cc2)CC1)c1ccc(Cl)cc1 (centres unmarked) [Eliprodil]
- AC50 [10, 15]: 0.12 µM
- IC50 [10, 14]: 0.12 µM

Compound: CC(Cc1ccccc1)NCCn1cnc2c1c(=O)n(C)c(=O)n2C (centres unmarked) [Fenethylline hydrochloride]
- IC50 [8, 13]: 85.1 µM
- IC50 [10, 14]: 5.37 µM

Compound: O=C(CN1CCN(Cc2ccc3c(c2)OCO3)CC1)N1c2ccccc2Sc2ccccc21 [Fenoverine]
- IC50 [6, 12]: 18.9 µM
- IC50 [8, 13]: 40.7 µM
- IC50 [10, 14]: 0.46 µM

Compound: CCN(CC)CCN1C(=O)CN=C(c2ccccc2F)c2cc(Cl)ccc21 [Flurazepam]
- IC50 [10, 14]: 15.6 µM

Compound: CCC(=O)O[C@]1(C(=O)SCF)[C@H](C)C[C@H]2[C@@H]3C[C@H](F)C4=CC(=O)C=C[C@]4(C)[C@@]3(F)[C@@H](O)C[C@@]21C [Fluticasone propionate]
- IC50 [6, 12]: 4.84 µM
- IC50 [10, 14]: 13 µM

Compound: N=C(N)NC(=O)Cc1c(Cl)cccc1Cl [Guanfacine hydrochloride]
- CYP2C19 AC50 (half-maximal activity concentration) [2]: Inactive
- CYP1A2 AC50 (half-maximal activity concentration) [5]: Inactive
- AC50 [6]: 27.3 µM
- AC50 [10, 15]: 25.8 µM

Compound: Brc1c(Br)c(Br)c(Br)c(Br)c1Br [Hexabromobenzene]
- Luciferase IC50 (half-maximal inhibitory concentration) [1]: Inactive
- CYP2C19 IC50 (half-maximal inhibitory concentration) [2]: Inactive
- CYP2D6 IC50 (half-maximal inhibitory concentration) [3]: Inactive
- IC50 [4, 11]: 0.09 µM
- CYP1A2 Efficacy (in parenthesis) [5]: 0.09 ± 0.01 (-45 ± 9) %
- CYP2C9 IC50 (half-maximal inhibitory concentration) [7]: Inactive
- CYP3A4 IC50 (half-maximal inhibitory concentration) [9]: Inactive

Compound: COc1cc(C(C)=O)ccc1OCCCN1CCC(c2noc3cc(F)ccc23)CC1 [Iloperidone]
- IC50 [6]: 22.9 ± 14.1 µM
- IC50 [10]: 10.1 ± 2.8 µM

Compound: CN1CCC(=C2c3ccccc3CC(=O)c3sccc32)CC1 [Ketotifen]
- AC50 [8]: 37.5 µM
- AC50 [10, 15]: 2.2 µM

Compound: O=C(O)c1nn(Cc2ccc(Cl)cc2Cl)c2ccccc12 [Lonidamine]
- AC50 [6]: 68 µM
- AC50 [10, 15]: 66 µM

Compound: Cc1nc(N)nc(N)c1-c1ccc(Cl)c(Cl)c1 [Methodichlorophen]
- AC50 [10]: 2.3 ± 0.41 µM

Compound: C[C@@H]1C[C@H]2[C@@H]3CCC4=CC(=O)C=C[C@]4(C)[C@@]3(Cl)[C@@H](O)C[C@]2(C)[C@@]1(OC(=O)c1ccco1)C(=O)CCl [Mometasone furoate, reference compound]
- IC50 [6, 12]: 8.08 µM
- IC50 [8, 13]: 7.97 µM
- IC50 [10, 14]: 3.75 µM

Compound: Cc1c(O)cccc1C(=O)N[C@@H](CSc1ccccc1)[C@H](O)CN1C[C@H]2CCCC[C@H]2C[C@H]1C(=O)NC(C)(C)C [Nelfinavir mesylate]
- IC50 [6, 12]: 19.1 µM
- IC50 [8, 13]: 42.1 µM
- IC50 [10, 14]: 14.4 µM

Compound: CC[N+](C)(CC)CCOC(=O)C(O)(c1ccccc1)C1CCCCC1 (centres unmarked) [Oxyphenonium bromide]
- IC50 [10, 14]: 0.87 µM

Compound: CC1CCCC(C)N1CCCC(O)(c1ccccc1)c1ccccn1 (centres unmarked) [Pirmenol]
- IC50 [10, 14]: 0.92 µM

Compound: CC[C@@H]([C@H](C)O)n1ncn(-c2ccc(N3CCN(c4ccc(OC[C@@H]5CO[C@@](Cn6cncn6)(c6ccc(F)cc6F)C5)cc4)CC3)cc2)c1=O [Posaconazole]
- IC50 [10]: 11.3 ± 3.6 µM

Compound: CC(C)[N+](C)(CCOC(=O)C1c2ccccc2Oc2ccccc21)C(C)C [Propantheline bromide]
- AC50 [10, 15]: 0.19 µM
- IC50 [10, 14]: 0.09 µM

Compound: CC[N+](CC)(CC)CCOc1ccc(/C=C/c2ccccc2)cc1 [Stilonium iodide]
- AC50 [10, 15]: 15.5 µM

Compound: CCOc1ccccc1OCCN[C@H](C)Cc1ccc(OC)c(S(N)(=O)=O)c1 [Tamsulosin hydrochloride]
- IC50 [10, 14]: 12.8 µM

Compound: CCN(CC)C(=O)SCc1ccc(Cl)cc1 [Thiobencarb]
- IC50 [1]: 38.5 µM
- CYP2C19 Efficacy (in parenthesis) [2]: 0.66 ± 0.12 (-124 ± 7) %
- CYP2D6 IC50 (half-maximal inhibitory concentration) [3]: Inactive
- IC50 [4, 11]: 15.9 µM
- CYP1A2 Efficacy (in parenthesis) [5]: 15.89 ± 0 (-91 ± 6) %
- IC50 [6, 12]: 25.2 µM
- CYP2C9 Efficacy (in parenthesis) [7]: 25.18 ± 0 (-91 ± 2) %
- IC50 [8, 13]: 0.66 µM
- CYP3A4 IC50 (half-maximal inhibitory concentration) [9]: Inactive

Compound: OC(CCN1CCCCC1)(c1ccccc1)C1CCCCC1 (centres unmarked) [Trihexyphenidyl hydrochloride]
- IC50 [8, 13]: 17.2 µM
- IC50 [10, 14]: 0.76 µM

Compound: COc1ccccc1N1CCN(CCCNc2cc(=O)n(C)c(=O)n2C)CC1 [Urapidil hydrochloride]
- AC50 [10, 15]: 14 µM

Compound: CC(CCc1ccccc1)NCC(O)c1ccc(O)c(C(N)=O)c1 (centres unmarked) [labetalol, reference compound]
- IC50 [10]: 0.6 µM

Compound: ClC(Cl)=C(c1ccc(Cl)cc1)c1ccc(Cl)cc1 [p,p'-DDE]
- Luciferase IC50 (half-maximal inhibitory concentration) [1]: Inactive
- CYP2C19 Efficacy (in parenthesis) [2]: 0.57 ± 0.14 (-135 ± 7) %
- CYP2D6 IC50 (half-maximal inhibitory concentration) [3]: Inactive
- IC50 [4, 11]: 3.65 µM
- CYP1A2 Efficacy (in parenthesis) [5]: 3.65 ± 1.85 (-100 ± 2) %
- IC50 [6, 12]: 12.9 µM
- CYP2C9 Efficacy (in parenthesis) [7]: 12.86 ± 6.41 (-84 ± 11) %
- IC50 [8, 13]: 0.57 µM
- CYP3A4 IC50 (half-maximal inhibitory concentration) [9]: Inactive

Compound: CC(CN(C)C)CN1c2ccccc2CCc2ccccc21 (centres unmarked) [trimipramine, reference compound]
- IC50 ([10]; IC50 CYP2D6 assay): 3.1 µM

Reference: publication PMC12155096 (International Journal of Molecular Sciences, 2025)
